IC50 data for 35 compounds are collected here from patent US20220274979A1 (Bayer Pharma Aktiengesellschaft, priority 2018, published 2022).

Bounds are passed on as bounds.

For this test, the target named is T1, Epidermal Growth Factor Receptor (EGFR) (Homo sapiens, UniProt P00533).
T1 construct: purchased Sigma-Aldrich E3641
T1 sequence (P00533 25-1210): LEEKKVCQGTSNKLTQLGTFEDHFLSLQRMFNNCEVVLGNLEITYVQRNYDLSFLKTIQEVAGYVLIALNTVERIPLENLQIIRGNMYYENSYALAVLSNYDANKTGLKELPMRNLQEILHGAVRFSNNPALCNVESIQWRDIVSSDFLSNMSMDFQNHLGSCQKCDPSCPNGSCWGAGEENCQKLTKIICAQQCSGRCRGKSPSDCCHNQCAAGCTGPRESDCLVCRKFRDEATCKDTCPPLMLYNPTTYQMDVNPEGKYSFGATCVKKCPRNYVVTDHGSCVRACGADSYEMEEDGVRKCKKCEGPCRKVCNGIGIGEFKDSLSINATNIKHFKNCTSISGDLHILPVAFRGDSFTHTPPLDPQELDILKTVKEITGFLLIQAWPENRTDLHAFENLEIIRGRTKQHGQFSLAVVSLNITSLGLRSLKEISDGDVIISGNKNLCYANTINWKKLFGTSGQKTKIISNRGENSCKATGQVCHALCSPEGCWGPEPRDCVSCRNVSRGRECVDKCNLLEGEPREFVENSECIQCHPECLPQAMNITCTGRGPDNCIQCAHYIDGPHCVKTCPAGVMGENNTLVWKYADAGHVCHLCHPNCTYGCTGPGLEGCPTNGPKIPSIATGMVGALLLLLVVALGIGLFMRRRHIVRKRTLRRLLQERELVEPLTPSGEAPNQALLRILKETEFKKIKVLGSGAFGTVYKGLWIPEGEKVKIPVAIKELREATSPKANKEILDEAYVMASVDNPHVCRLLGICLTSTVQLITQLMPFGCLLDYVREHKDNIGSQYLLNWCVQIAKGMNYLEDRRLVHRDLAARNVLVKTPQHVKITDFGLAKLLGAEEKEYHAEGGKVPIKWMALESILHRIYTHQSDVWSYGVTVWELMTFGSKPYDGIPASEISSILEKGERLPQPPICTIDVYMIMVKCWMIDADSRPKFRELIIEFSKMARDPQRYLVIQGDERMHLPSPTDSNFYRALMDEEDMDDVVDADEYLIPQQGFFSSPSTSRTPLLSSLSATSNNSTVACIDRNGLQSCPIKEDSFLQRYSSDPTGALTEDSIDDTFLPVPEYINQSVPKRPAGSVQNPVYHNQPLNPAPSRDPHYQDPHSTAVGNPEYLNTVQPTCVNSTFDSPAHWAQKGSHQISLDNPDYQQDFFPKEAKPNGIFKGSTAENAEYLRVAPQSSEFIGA
As to the kind of experiment: EGFR kinase assay (TR-FRET). It counts as biochemical. Conditions: 10 μM ATP; read-out: EGFR kinase inhibition IC50. An excerpt:
EGFR inhibitory activity of compounds of the present invention was quantified employing the TR-FRET based EGFR assay as described in the following paragraphs.
Epidermal Growth Factor Receptor (EGFR) affinity purified from human carcinoma A431 cells (Sigma-Aldrich, # E3641) was used as kinase. As substrate for the kinase reaction the biotinylated peptide biotin-Ahx-[…] (SEQ ID NO: 8, C-terminus in amid form) was used which can be purchased e.g. form the company Biosyntan GmbH (Berlin-Buch, Germany).
For the assay 50 nL of a 100 fold concentrated solution of the test compound in DMSO was pipetted into a black low volume 384 well microtiter plate (Greiner Bio-One, Frickenhausen, Germany), 2 μL of a solution of EGFR in aqueous assay buffer [50 mM Hepes/HCl pH 7.0, 1 mM MgCl2, 5 mM MnCl2, 0.5 mM activated sodium ortho-vanadate, 0.005% (v/v) Tween-20]were added and the mixture was incubated for […] at 22° C. to allow pre-binding of the test compounds to the enzyme before the start of the kinase reaction. Then the kinase reaction was started by the addition of 3 μL of a solution of adenosine-tri-phosphate (ATP, 16.7 μM=>final conc. in the 5 μL assay volume is 10 μM) and substrate (1.67 μM =>final conc. in the 5 μL assay volume is 1μM) in assay buffer and the resulting mixture was incubated for a reaction time of […] at 22° C. The concentration of EGFR was adjusted depending of the activity of the enzyme lot and was chosen appropriate to have the assay in the linear range, typical concentration were about 3 U/ml. The reaction was stopped by the addition of 5 μl of a solution of HTRF detection reagents (0.1 μM streptavidine-XL665 [Cis Biointernational]and 1 nM PT66-Tb-Cryptate, an terbium-cryptate labelled anti-phospho-tyrosine antibody from Cis Biointernational [instead of the PT66-Tb-cryptate PT66-Eu-Chelate from Perkin Elmer can also be used]) in an aqueous EDTA-solution (80 mM EDTA, 0.2% (w/v) bovine serum albumin in 50 mM HEPES pH 7.5).
The resulting mixture was incubated 1 h at 22° C. to allow the binding of the biotinylated phosphorylated peptide to the streptavidine-XL665 and the PT66-Eu-Chelate. Subsequently the amount of phosphorylated substrate was evaluated by measurement of the resonance energy transfer from the PT66-Tb-Cryptate to the streptavidine-XL665. Therefore, the fluorescence emissions at 620 nm and 665 nm after excitation at 337 nm were measured in a HTRF reader, e.g. a Pherastar (BMG Labtechnologies, Offenburg, Germany) or a Viewlux (Perkin-Elmer). The ratio of the emissions at 665 nm and at […] was taken as the measure for the amount of phosphorylated substrate.
In general terms: Time-resolved FRET reads energy transfer from a long-lived donor to a nearby acceptor.
In general, IC50 refers to the concentration at which inhibition is half-maximal. On to `CC(=O)NC1CCN(c2cc3c(N[C@H](C)c4cccc(Br)c4)nc(C)nc3cn2)C1` (mixture of isomers) [Example 42, N-[1-(4-{[(1R)-1-(3-bromophenyl)ethyl]amino}-2-methylpyrido[3,4-d]pyrimidin-6-yl)pyrrolidin-3-yl]acetamide], for which the IC50 was greater than 20 µM.
The value for `Cc1nc(NC(C)c2ccc(-c3ccccc3CN(C)C)s2)c2cc(C3CCN(C)C3=O)ncc2n1` (mixture of isomers) [Example 69, 3-(4-{[1-(5-{2-[(dimethylamino)methyl]phenyl}thiophen-2-yl)ethyl]amino}-2-methylpyrido[3,4-d]pyrimidin-6-yl)-1-methylpyrrolidin-2-one] was greater than 20 µM.
The value for `Cc1nc(NC(C)c2ccc(-c3ccccc3CN(C)C)s2)c2cc(C3(O)CCN(C)C3=O)ncc2n1` (mixture of isomers) [Example 85, 3-(4-{[1-(5-{2-[(dimethylamino)methyl]phenyl}thiophen-2-yl)ethyl]amino}-2-methylpyrido[3,4-d]pyrimidin-6-yl)-3-hydroxy-1-methylpyrrolidin-2-one] was greater than 20 µM; that for `CCOc1cc2c(NC(C)c3cccc4sccc34)nc(C)nc2cn1` (centres unmarked) [Example 3, N-[1-(1-benzothiophen-4-yl)ethyl]-6-ethoxy-2-methylpyrido[3,4-d]pyrimidin-4-amine] was greater than 20 µM.
The value for `COc1cc2c(NC(C)c3cccc4sccc34)nc(C)nc2cn1` (centres unmarked) [Example 4, N-[1-(1-benzothiophen-4-yl)ethyl]-6-methoxy-2-methylpyrido[3,4-d]pyrimidin-4-amine] was greater than 20 µM; that for `CCOc1cc2c(N[C@H](C)c3cccc(Br)c3)nc(C)nc2cn1` [Example 5, N-[(1R)-1-(3-bromophenyl)ethyl]-6-ethoxy-2-methylpyrido[3,4-d]pyrimidin-4-amine] was greater than 20 µM; that for `CCOc1cc2c(N[C@H](C)c3cccc(Cl)c3)nc(C)nc2cn1` [Example 6] was greater than 20 µM.
As to `CCOc1cc2c(N[C@H](C)c3cccc(S(C)(=O)=O)c3)nc(C)nc2cn1` [Example 7, 6-ethoxy-2-methyl-N-{(1R)-1-[3-(methylsulfonyl)phenyl]ethyl}pyrido[3,4-d]pyrimidin-4-amine], the IC50 is greater than 20 µM.
The value for `COc1cc2c(N[C@H](C)c3ccc(F)c(Cl)c3)nc(C)nc2cn1` [Example 8] was greater than 20 µM; that for `Cc1nc(N[C@H](C)c2ccc(F)cc2)c2cc(F)ncc2n1` [Example 9] was greater than 20 µM; that for `Cc1nc(N[C@H](C)c2ccc(F)cc2)c2cc(OCC3CCOCC3)ncc2n1` [Example 11, N-[1R)-1-(4-fluorophenypethyl]-2-methyl-6-(tetrahydro-2H-pyran-4-ylmethoxy)-pyrido[3,4-d]pyrimidin-4-amine] was greater than 20 µM.
The value for `COc1cc2c(N[C@H](C)c3ccc(F)c(C4CC4)c3)nc(C)nc2cn1` [Example 12] was greater than 20 µM.
The value for `CCOc1cc2c(N[C@H](C)c3ccc(Br)cc3)nc(C)nc2cn1` [Example 13, N-[(1R)-1-(4-bromophenyl)ethyl]-6-ethoxy-2-methylpyrido[3,4-d]pyrimidin-4-amine] was greater than 20 µM; that for `COc1cc2c(NC(C)c3cccc4c3cnn4C)nc(C)nc2cn1` (centres unmarked) [Example 14, 6-methoxy-2-methyl-N-[1-(1-methyl-1H-indazol-4-yl)ethyl]pyrido[3,4-d]pyrimidin-4-amine] was greater than 20 µM; that for `Cc1nc(N[C@H](C)c2ccc(F)cc2)c2cc(OC(C)C)ncc2n1` [Example 15] was greater than 20 µM.
For `COc1cc2c(NC(C)c3cccc4nn(C)cc34)nc(C)nc2cn1` (centres unmarked) [Example 17, 6-methoxy-2-methyl-N-[1-(2-methyl-2H-indazol-4-yl)ethyl]pyrido[3,4-d]pyrimidin-4-amine], the IC50 was greater than 20 µM.
As for `CCOc1cc2c(N[C@H](C)c3ccc(C#N)cc3)nc(C)nc2cn1` [Example 18, 4-{(1R)-1-[(6-ethoxy-2-methylpyrido[3,4-d]pyrimidin-4-yl)amino]ethyl}benzonitrile], the figure is greater than 20 µM; as for `Cc1nc(N[C@H](C)c2cccc(Br)c2)c2nc(OCc3ccccc3)ncc2n1` [Example 20, 6-(benzyloxy)-N-[(1R)-1-(3-bromophenyl)ethyl]-2-methylpyrimido[5,4-d]pyrimidin-4-amine], greater than 20 µM.
The value for `Cc1nc(N[C@H](C)c2cccc(Br)c2)c2nc(N(C)C)ncc2n1` [Example 21] was greater than 20 µM; that for `Cc1nc(N[C@H](C)c2cccc(Br)c2)c2nc(N3CCOCC3)ncc2n1` [Example 22, N-[(1R)-1-(3-bromophenyl)ethyl]-2-methyl-6-(morpholin-4-yl)pyrimido[5,4-d]pyrimidin-4-amine] was greater than 20 µM; that for `CCOc1ncc2nc(C)nc(N[C@H](C)c3cccc(Br)c3)c2n1` [Example 23, N-[(1R)-1-(3-bromophenyl)ethyl]-6-ethoxy-2-methylpyrimido[5,4-d]pyrimidin-4-amine] was greater than 20 µM.
With `COc1ncc2nc(C)nc(N[C@H](C)c3cccc(Br)c3)c2n1` [Example 24, N-[(1R)-1-(3-bromophenyl)ethyl]-6-methoxy-2-methylpyrimido[5,4-d]pyrimidin-4-amine], the IC50 is greater than 20 µM.
The value for `Cc1nc(N[C@H](C)c2cccc(Br)c2)c2nc(Oc3ccccc3)ncc2n1` [Example 25, N-[(1R)-1-(3-bromophenyl)ethyl]-2-methyl-6-phenoxypyrimido[5,4-d]pyrimidin-4-amine] was greater than 20 µM; that for `COCCOc1ncc2nc(C)nc(N[C@H](C)c3cccc(Br)c3)c2n1` [Example 26, N-[(1R)-1-(3-bromophenyl)ethyl]-6-(2-methoxyethoxy)-2-methylpyrimido[5,4-d]pyrimidin-4-amine] was greater than 20 µM.
The value for `Cc1nc(N[C@H](C)c2cccc(Br)c2)c2nc(N3CCOCC3)ccc2n1` [Example 27, N-[(1R)-1-(3-bromophenyl)ethyl]-2-methyl-6-(morpholin-4-yl)pyrido[3,2-d]pyrimidin-4-amine] was greater than 20 µM; that for `COc1ccc2nc(C)nc(N[C@H](C)c3cccc(Br)c3)c2n1` [Example 28, N-[(1R)-1-(3-bromophenyl)ethyl]-6-methoxy-2-methylpyrido[3,2-d]pyrimidin-4-amine] was greater than 20 µM; that for `CCOc1ccc2nc(C)nc(N[C@H](C)c3cccc(Br)c3)c2n1` [Example 29, N-[(1R)-1-(3-bromophenyl)ethyl]-6-ethoxy-2-methylpyrido[3,2-d]pyrimidin-4-amine] was greater than 20 µM.
The value for `COCCOc1ccc2nc(C)nc(N[C@H](C)c3cccc(Br)c3)c2n1` [Example 30, N-[(1R)-1-(3-bromophenyl)ethyl]-6-(2-methoxyethoxy)-2-methylpyrido[3,2-d]pyrimidin-4-amine] was greater than 20 µM.
`Cc1nc(N[C@H](C)c2cccc(Br)c2)c2nc(N(C)C)ccc2n1` [Example 31]: the IC50 was greater than 20 µM.
As for `Cc1nc(N[C@H](C)c2cccc(Br)c2)c2nc(Oc3ccccc3)ccc2n1` [Example 32, N-[(1R)-1-(3-bromophenyl)ethyl]-2-methyl-6-phenoxypyrido[3,2-d]pyrimidin-4-amine], the figure is greater than 20 µM.
The value for `Cc1nc(N[C@H](C)c2cccc(Br)c2)c2nc(OCc3ccccc3)ccc2n1` [Example 33, 6-(benzyloxy)-N-[(1R)-1-(3-bromophenyl)ethyl]-2-methylpyrido[3,2-d]pyrimidin-4-amine] was greater than 20 µM; that for `Cc1nc(N[C@H](C)c2cccc(Br)c2)c2cc(F)ncc2n1` [Example 34, N-[(1R)-1-(3-bromophenyl)ethyl]-6-fluoro-2-methylpyrido[3,4-d]pyrimidin-4-amine] was greater than 20 µM; that for `Cc1nc(NC(C)c2ccc(Br)s2)c2cc(F)ncc2n1` (centres unmarked) [Example 35] was greater than 20 µM.
As to `CNCc1ccccc1-c1ccc(C(C)Nc2nc(C)nc3cnc(F)cc23)s1` (centres unmarked) [Example 36, 6-fluoro-2-methyl-N-[1-(5-{2-[(methylamino)methyl]phenyl}thiophen-2-yl)ethyl]pyrido[3,4-d]pyrimidin-4-amine], the IC50 was greater than 20 µM.
The value for `CNCc1ccccc1-c1ccc(C(C)Nc2nc(C)nc3cnc(Oc4ccc(N5CCCC5=O)cc4)cc23)s1` (centres unmarked) [Example 38, 1-{4-[(2-methyl-4-{[1-(5-{2-[(methylamino)methyl]phenyl}thiophen-2-yl)ethyl]amino}pyrido[3,4-d]pyrimidin-6-yl)oxy]phenyl}pyrrolidin-2-one] was greater than 20 µM.
